What all share (assay): relative viability (nuclei count vs DMSO), 5 days (fraction); higher = more cells survive
Compound in the assay “Axitinib + OSI-027”: CNC(=O)c1ccccc1Sc1ccc2c(/C=C/c3ccccn3)n[nH]c2c1 [Axitinib] + COc1cccc2cc(-c3nc([C@H]4CC[C@H](C(=O)O)CC4)n4ncnc(N)c34)[nH]c12 [OSI-027] (partner 0.5 µM)
In short, it runs like this:
(§1)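 Values are medians from duplicate plates. Each reflects relative viability, defined as the nuclei count of treated wells over that of vehicle wells. Lung cancer cell lines in 1536-well plates were pin-tool dosed one day after seeding with one drug alone or with a fixed anchor-drug dose plus five library-drug doses (not always all listed) in √10 steps, then fixed, stained and imaged at 4× after 5 days.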

Compound in the assay “Axitinib + Tozasertib”: CNC(=O)c1ccccc1Sc1ccc2c(/C=C/c3ccccn3)n[nH]c2c1 [Axitinib] + Cc1cc(Nc2cc(N3CCN(C)CC3)nc(Sc3ccc(NC(=O)C4CC4)cc3)n2)n[nH]1 [Tozasertib] (partner 0.1 µM)
In a few lines:
as §1

Compound in the assay “Bemcentinib + Alpelisib”: Nc1nc(Nc2ccc3c(c2)CC[C@@H](N2CCCC2)CC3)nn1-c1cc2c(nn1)-c1ccccc1CCC2 [Bemcentinib] + Cc1nc(NC(=O)N2CCC[C@H]2C(N)=O)sc1-c1ccnc(C(C)(C)C(F)(F)F)c1 [Alpelisib] (partner 2 µM)
In a few lines:
as §1

Compound in the assay “Bemcentinib + Dasatinib”: Nc1nc(Nc2ccc3c(c2)CC[C@@H](N2CCCC2)CC3)nn1-c1cc2c(nn1)-c1ccccc1CCC2 [Bemcentinib] + Cc1nc(Nc2ncc(C(=O)Nc3c(C)cccc3Cl)s2)cc(N2CCN(CCO)CC2)n1 [Dasatinib] (partner 0.075 µM)
In short, it runs like this: as §1

As for NCI-H650, the relative viability in the assay with Axitinib + OSI-027 (first compound 0.005 µM) is 0.533; in the assay with Axitinib + OSI-027 (first compound 0.01581 µM), 0.486; in the assay with Axitinib + OSI-027 (first compound 0.05 µM), 0.517; in the assay with Axitinib + OSI-027 (first compound 0.1581 µM), 0.571; with Axitinib + OSI-027 (first compound 0.5 µM), 0.584; with Axitinib + Tozasertib (first compound 0.005 µM), 0.714. Also, the relative viability was found to be 0.734 in the assay with Axitinib + Tozasertib (first compound 0.01581 µM); 0.699 with Axitinib + Tozasertib (first compound 0.05 µM); 0.693 with Axitinib + Tozasertib (first compound 0.1581 µM); 0.78 in the assay with Axitinib + Tozasertib (first compound 0.5 µM); 1.01 in the assay with Bemcentinib + Alpelisib (first compound 0.04 µM); 1.38 with Bemcentinib + Alpelisib (first compound 0.1265 µM). The relative viability in the assay with Bemcentinib + Alpelisib (first compound 0.4 µM) was 1.22; with Bemcentinib + Alpelisib (first compound 1.265 µM), 0.974; with Bemcentinib + Alpelisib (first compound 4 µM), 1.06; with Bemcentinib + Dasatinib (first compound 0.04 µM) it was 0.424; with Bemcentinib + Dasatinib (first compound 0.1265 µM) it was 0.514; with Bemcentinib + Dasatinib (first compound 0.4 µM), 0.474. Also, the relative viability in the assay with Bemcentinib + Dasatinib (first compound 1.265 µM) was found to be 0.43; with Bemcentinib + Dasatinib (first compound 4 µM) it was 0.4.

Values taken from the supplement of paper PMC10307832.
